Results on two compounds are retold here after patent US20060168675A1, “Novel polypetide having function of 7-keto-8-aminopelargonic acid synthase of plant and method for inducing growth inhibition and lethality by suppressing expression of the polypeptide” (GENOMINE, INC, priority 2002, published 2006).

Assay [1] deals with transgenic Arabidopsis thaliana comprising antisense construct of AtKAPAS gene. As to conditions: pots filled with sands containing 1 mM biotin; Basta treated 5 times; transformed seeds. The protocol: The pots were treated with Basta 5 times, and then investigated for the growth of Arabidopsis thaliana in every pot.
The target of assay [2] is T1, protein expressed by AtKAPAS gene (KAPA synthase) (Arabidopsis thaliana, UniProt Q8GW43, DEL236-242/L243I).
T1 construct: contains 1410 bp size open reading frame encoding 469 amino acids; made in house; host or cells: E. coli BL21-Gold(DE) transformed with pCKAPA (AtKAPAS cDNA in pCAL-n)
The format is biochemical. As to conditions: substrate pimeroyl CoA, Lineweaver-Burk plot, 30° C., pH 7.5, 340 nm. The protocol:
The enzyme activity of the protein was measured at 340 nm using a spectrophotometer (Backman DU series 60 spectrophotometer) adjusted at 30° C. according to a method of Alexeev et al.(Alexeev et al. J. Mol. Biol., 284:401-419, 1998). […] In every reaction solution, the concentration of the protein was 10 μM. L-alanine and pimeroyl CoA were also added into each reaction solution ([…]). Results were analyzed using the Soft-Pac Module kinetics software. Before the analysis, enzyme samples were dialyzed with 20 mM potassium phosphate buffer (pH 7.5) containing 100 μM PLP (pyridoxal 5′-phosphate) at 4° C. for 2 hours. The cuvette containing other substances but the purified protein was used as a control group for the measurement of the enzyme activity.
The changes of reaction speed according to substrate concentration were measured, and then represented by Lineweaver-Burkes plot (see FIG. 4).

Assay [3] concerns the target KAPA syntase of E. coli (Escherichia coli, UniProt P12998). The conditions noted are these: KAPA synthase of E. coli; read-out: Km value to pimeroyl CoA; cited from earlier work.
The target in assay [4] is KAPA syntase of Bacillus sphaericus (Lysinibacillus sphaericus, UniProt P22806). The conditions noted are these: read-out: Km value to pimeroyl CoA; KAPA synthase of Bacillus sphaericus; cited from earlier work.
KAPA syntase of Bacillus sphaericus, sequence (P22806 whole entry): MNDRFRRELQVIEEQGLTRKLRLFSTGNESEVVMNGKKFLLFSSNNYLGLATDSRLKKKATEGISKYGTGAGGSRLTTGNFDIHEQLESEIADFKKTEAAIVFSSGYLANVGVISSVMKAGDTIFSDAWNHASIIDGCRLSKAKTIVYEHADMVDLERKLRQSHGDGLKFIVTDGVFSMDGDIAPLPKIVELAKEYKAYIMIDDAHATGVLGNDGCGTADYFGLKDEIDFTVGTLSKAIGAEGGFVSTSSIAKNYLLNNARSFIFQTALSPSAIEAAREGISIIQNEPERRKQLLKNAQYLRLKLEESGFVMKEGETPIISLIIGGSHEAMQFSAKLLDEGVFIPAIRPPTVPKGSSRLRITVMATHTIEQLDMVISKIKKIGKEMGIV

T1 sequence (Q8GW43 other isoform, or with tags, fused parts or gaps DEL236-242/L243I): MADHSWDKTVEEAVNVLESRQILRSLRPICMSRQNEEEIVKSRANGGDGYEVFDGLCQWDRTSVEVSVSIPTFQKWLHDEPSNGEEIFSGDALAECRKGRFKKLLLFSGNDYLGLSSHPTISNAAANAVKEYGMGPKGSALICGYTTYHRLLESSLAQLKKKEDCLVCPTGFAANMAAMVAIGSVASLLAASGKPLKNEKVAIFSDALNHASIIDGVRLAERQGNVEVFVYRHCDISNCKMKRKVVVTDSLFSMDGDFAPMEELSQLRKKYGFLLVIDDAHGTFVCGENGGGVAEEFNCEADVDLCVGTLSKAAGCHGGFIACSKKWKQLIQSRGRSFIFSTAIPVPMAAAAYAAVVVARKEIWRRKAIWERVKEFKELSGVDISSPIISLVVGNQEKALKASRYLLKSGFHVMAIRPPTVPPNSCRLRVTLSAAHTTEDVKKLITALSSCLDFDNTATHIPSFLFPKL
KAPA syntase of E. coli, sequence (P12998 whole entry): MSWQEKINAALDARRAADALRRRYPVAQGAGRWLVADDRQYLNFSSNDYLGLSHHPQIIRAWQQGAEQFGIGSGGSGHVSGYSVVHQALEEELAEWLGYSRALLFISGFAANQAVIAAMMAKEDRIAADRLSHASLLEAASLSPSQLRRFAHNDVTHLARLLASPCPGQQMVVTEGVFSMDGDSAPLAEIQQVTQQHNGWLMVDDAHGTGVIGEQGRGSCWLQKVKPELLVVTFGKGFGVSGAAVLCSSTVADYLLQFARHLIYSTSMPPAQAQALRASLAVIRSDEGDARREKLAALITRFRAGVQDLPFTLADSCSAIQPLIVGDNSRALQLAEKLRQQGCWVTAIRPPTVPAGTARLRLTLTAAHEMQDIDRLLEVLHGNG

Consider `O=C(O)CCCC[C@@H]1SC[C@@H]2NC(=O)N[C@@H]21` [biotin], for which, in assay [1], the “Individual plants grown up” value worked out at 16.

For `CC(C)(COP(=O)(O)OP(=O)(O)OC[C@H]1O[C@@H](n2cnc3c(N)ncnc32)[C@H](O)[C@@H]1OP(=O)(O)O)[C@@H](O)C(=O)NCCC(=O)NCCSC(=O)CCCCCC(=O)O` [pimeroyl CoA, pimeloyl CoA], the Km in assay [2] (read-out: Km value) was 0.54 µM; in assay [3] it was 500 µM; in assay [4], 2500 µM. Moreover, the Vmax value in assay [2] came out at 7.93.
